Measurements taken from PubChem BioAssay (NCI).
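Tested at 5 concentrations; 48 h exposure; 96-well plates; endpoints linearly interpolated, else capped at highest concentration. GI50 = concentration required for 50% inhibition of growth. The concentration for full growth arrest is given as TGI.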

Experiments:
Test in all cases: DTP human tumour cell line panel, 48 h
HCT-116 colon = test system: HCT-116 colon
SF-539 CNS = test system: SF-539 CNS
MCF7 breast = test system: MCF7 breast
UACC-257 melanoma = test system: UACC-257 melanoma
A498 renal = test system: A498 renal
MOLT-4 leukemia = test system: MOLT-4 leukemia
CCRF-CEM leukemia = test system: CCRF-CEM leukemia
IGROV1 ovarian = test system: IGROV1 ovarian
SK-MEL-28 melanoma = test system: SK-MEL-28 melanoma
RXF 393 renal = test system: RXF 393 renal
SN12C renal = test system: SN12C renal
HL-60(TB) leukemia = test system: HL-60(TB) leukemia
K-562 leukemia = test system: K-562 leukemia
HS 578T breast = test system: HS 578T breast
HOP-62 NSCLC = test system: HOP-62 NSCLC
NCI-H460 lung = test system: NCI-H460 lung
SF-295 CNS = test system: SF-295 CNS
BT-549 breast = test system: BT-549 breast
COLO 205 colon = test system: COLO 205 colon
M14 melanoma = test system: M14 melanoma
SK-MEL-2 melanoma = test system: SK-MEL-2 melanoma
A549 NSCLC = test system: A549 NSCLC
HT29 colon = test system: HT29 colon
NCI-H226 lung = test system: NCI-H226 lung
EKVX NSCLC = test system: EKVX NSCLC
OVCAR-3 ovarian = test system: OVCAR-3 ovarian
RPMI-8226 leukemia = test system: RPMI-8226 leukemia
SW-620 colon = test system: SW-620 colon
LOX IMVI melanoma = test system: LOX IMVI melanoma
ACHN renal = test system: ACHN renal
OVCAR-4 ovarian = test system: OVCAR-4 ovarian
SR leukemia = test system: SR leukemia
SK-OV-3 ovarian = test system: SK-OV-3 ovarian
OVCAR-5 ovarian = test system: OVCAR-5 ovarian
MDA-MB-231 breast = test system: MDA-MB-231 breast
MDA-MB-435 = test system: MDA-MB-435
NCI/ADR-RES ovarian = test system: NCI/ADR-RES ovarian
U251 CNS = test system: U251 CNS
SNB-19 CNS = test system: SNB-19 CNS
NCI-H23 lung = test system: NCI-H23 lung
DU-145 prostate = test system: DU-145 prostate
HCC-2998 colon = test system: HCC-2998 colon
HCT-15 colon = test system: HCT-15 colon
UACC-62 melanoma = test system: UACC-62 melanoma
SK-MEL-5 melanoma = test system: SK-MEL-5 melanoma
PC-3 prostate = test system: PC-3 prostate
MALME-3M melanoma = test system: MALME-3M melanoma
TK-10 renal = test system: TK-10 renal
SF-268 CNS = test system: SF-268 CNS
HOP-92 NSCLC = test system: HOP-92 NSCLC
SNB-75 CNS = test system: SNB-75 CNS
NCI-H522 lung = test system: NCI-H522 lung
OVCAR-8 ovarian = test system: OVCAR-8 ovarian
UO-31 renal = test system: UO-31 renal
CAKI-1 renal = test system: CAKI-1 renal
786-0 renal = test system: 786-0 renal

Compound: C=C1C(=O)O[C@@H]2C[C@@H](C)/C=C\C(=O)[C@](C)(OC(C)=O)C[C@H](OC(=O)/C(C)=C\C)[C@@H]12
- GI50 (HCT-116 colon): 0.835 µM
- TGI (HCT-116 colon): 3.13 µM
- GI50 (SF-539 CNS): 3.19 µM
- TGI (SF-539 CNS): 6.52 µM
- GI50 (MCF7 breast): 0.971 µM
- TGI (MCF7 breast): 5.6 µM
- GI50 (UACC-257 melanoma): 2.66 µM
- TGI (UACC-257 melanoma): 6.77 µM
- GI50 (A498 renal): 6.15 µM
- TGI (A498 renal): 13.5 µM
- GI50 (MOLT-4 leukemia): 0.896 µM
- TGI (MOLT-4 leukemia): 4.25 µM
- GI50 (CCRF-CEM leukemia): 0.834 µM
- TGI (CCRF-CEM leukemia): 4.41 µM
- GI50 (IGROV1 ovarian): 4.31 µM
- TGI (IGROV1 ovarian): 9.91 µM
- GI50 (SK-MEL-28 melanoma): 1.81 µM
- TGI (SK-MEL-28 melanoma): 5.49 µM
- GI50 (RXF 393 renal): 0.683 µM
- TGI (RXF 393 renal): 1.87 µM
- GI50 (SN12C renal): 5.73 µM
- TGI (SN12C renal): > 25 µM
- GI50 (HL-60(TB) leukemia): 1 µM
- TGI (HL-60(TB) leukemia): 5.75 µM
- GI50 (K-562 leukemia): 0.978 µM
- TGI (K-562 leukemia): > 25 µM
- GI50 (HS 578T breast): 12.3 µM
- TGI (HS 578T breast): > 25 µM
- GI50 (HOP-62 NSCLC): 7.2 µM
- TGI (HOP-62 NSCLC): 20.7 µM
- GI50 (NCI-H460 lung): 7.02 µM
- TGI (NCI-H460 lung): 23.6 µM
- GI50 (SF-295 CNS): 7.73 µM
- TGI (SF-295 CNS): 20.2 µM
- GI50 (BT-549 breast): 3.02 µM
- TGI (BT-549 breast): 6.31 µM
- GI50 (COLO 205 colon): 0.75 µM
- TGI (COLO 205 colon): 2.6 µM
- GI50 (M14 melanoma): 3.69 µM
- TGI (M14 melanoma): 11 µM
- GI50 (SK-MEL-2 melanoma): 4.45 µM
- TGI (SK-MEL-2 melanoma): 12.1 µM
- GI50 (A549 NSCLC): 7.78 µM
- TGI (A549 NSCLC): 24.2 µM
- GI50 (HT29 colon): 1.06 µM
- TGI (HT29 colon): 4 µM
- GI50 (NCI-H226 lung): 3.48 µM
- TGI (NCI-H226 lung): 6.83 µM
- GI50 (EKVX NSCLC): 2.63 µM
- TGI (EKVX NSCLC): 6.27 µM
- GI50 (OVCAR-3 ovarian): 0.94 µM
- TGI (OVCAR-3 ovarian): 3.2 µM
- GI50 (RPMI-8226 leukemia): 0.893 µM
- TGI (RPMI-8226 leukemia): 2.94 µM
- GI50 (SW-620 colon): 1.01 µM
- TGI (SW-620 colon): 3.54 µM
- GI50 (LOX IMVI melanoma): 2.88 µM
- TGI (LOX IMVI melanoma): 6.18 µM
- GI50 (ACHN renal): 0.466 µM
- TGI (ACHN renal): 0.885 µM
- GI50 (OVCAR-4 ovarian): 1.58 µM
- TGI (OVCAR-4 ovarian): 8.48 µM
- GI50 (SR leukemia): 0.845 µM
- TGI (SR leukemia): 5.2 µM
- GI50 (SK-OV-3 ovarian): 11.1 µM
- TGI (SK-OV-3 ovarian): > 25 µM
- GI50 (OVCAR-5 ovarian): 2.53 µM
- TGI (OVCAR-5 ovarian): 5.97 µM
- GI50 (MDA-MB-231 breast): 1.7 µM
- TGI (MDA-MB-231 breast): 5.89 µM
- GI50 (MDA-MB-435): 3.91 µM
- TGI (MDA-MB-435): 12.4 µM
- GI50 (NCI/ADR-RES ovarian): 2.8 µM
- TGI (NCI/ADR-RES ovarian): > 25 µM
- GI50 (U251 CNS): 3.7 µM
- TGI (U251 CNS): 8.64 µM
- GI50 (SNB-19 CNS): 11.5 µM
- TGI (SNB-19 CNS): > 25 µM
- GI50 (NCI-H23 lung): 1.21 µM
- TGI (NCI-H23 lung): 5.95 µM
- GI50 (DU-145 prostate): 2.52 µM
- TGI (DU-145 prostate): 6.12 µM
- GI50 (HCC-2998 colon): 4.14 µM
- TGI (HCC-2998 colon): 8.31 µM
- GI50 (HCT-15 colon): 0.675 µM
- TGI (HCT-15 colon): 2.13 µM
- GI50 (UACC-62 melanoma): 1.55 µM
- TGI (UACC-62 melanoma): 5.93 µM
- GI50 (SK-MEL-5 melanoma): 3.7 µM
- TGI (SK-MEL-5 melanoma): 7.25 µM
- GI50 (PC-3 prostate): 4.77 µM
- TGI (PC-3 prostate): 13.7 µM
- GI50 (MALME-3M melanoma): 1.1 µM
- TGI (MALME-3M melanoma): 5.11 µM
- GI50 (TK-10 renal): 0.996 µM
- TGI (TK-10 renal): 3.32 µM
- GI50 (SF-268 CNS): 5.38 µM
- TGI (SF-268 CNS): 20.8 µM
- GI50 (HOP-92 NSCLC): 3.74 µM
- TGI (HOP-92 NSCLC): 8.05 µM
- GI50 (SNB-75 CNS): 4.07 µM
- TGI (SNB-75 CNS): 17.6 µM
- GI50 (NCI-H522 lung): 0.508 µM
- TGI (NCI-H522 lung): 1.22 µM
- GI50 (OVCAR-8 ovarian): 1.11 µM
- TGI (OVCAR-8 ovarian): 23.9 µM
- GI50 (UO-31 renal): 2.91 µM
- TGI (UO-31 renal): 6 µM
- GI50 (CAKI-1 renal): 1.09 µM
- TGI (CAKI-1 renal): 3.97 µM
- GI50 (786-0 renal): 2.66 µM
- TGI (786-0 renal): 5.93 µM
